Legend:
[1] = test system: SREBP-2; assay: Western blot, SREBP-2 protein level in HepG2; assay type: cell-based, human; settings: 50 µM, 24 h
Description: A total of 1.5 × 10^5 HepG2 cells/well (24-well plate) were treated with 50 μM of P5 and P5 analogs for 24 h. Immunoblotting experiments were performed using optimized protocol. See Supplementary Materials for further details.
PBS for 1.5 h at RT. LDLR primary antibody solution (1:3000 in 5% BSA in PBS, 25 µL/well) was incubated O/N at +4 °C. Subsequently, the primary antibody solution was discarded and each sample was washed 5 times with 100 µL/well of PBS (each wash was for 5 min at RT). Goat anti-rabbit Ig-HRP secondary antibody solution (Santa Cruz) (1:6000 in 5% BSA in PBS, 50 µL/well), was added and incubated 1 h at RT. […] The reaction was stopped with 2 M H2SO4 and then the absorbance at 450 nm was measured using the microplate reader Synergy H1 (Winoo-ski, VT, USA). After the read, cells were stained by adding 1 X Janus Green stain, incubat-ing for 5 min at RT. […]
Afterward 100 µL 0.5 M HCl for well were added and incubated for 10 min. After 10 sec-onds shaking, the OD at 595 nm was measured using the microplate reader Synergy H1 […]
Fluorescent LDL Uptake. […] The degree of LDL uptake was measured using the Synergy H1 fluo-rescent plate reader (Winooski, VT, USA) (excitation and emission wavelengths 540 and 570 nm, respectively). Fluorescent LDL-uptake was finally assessed following optimized […]

[2] = target: T1, HMG-CoAR (catalytic domain) (Homo sapiens, UniProt P04035); settings: parent peptide; read-out: IC50, HMG-CoAR activity (P5); cited from earlier work
T1 construct: finally the HMG-CoAR (cata- lytic domain) (2 µL); purchased Sigma-Aldrich
T1 sequence (P04035 426-888 limits assumed): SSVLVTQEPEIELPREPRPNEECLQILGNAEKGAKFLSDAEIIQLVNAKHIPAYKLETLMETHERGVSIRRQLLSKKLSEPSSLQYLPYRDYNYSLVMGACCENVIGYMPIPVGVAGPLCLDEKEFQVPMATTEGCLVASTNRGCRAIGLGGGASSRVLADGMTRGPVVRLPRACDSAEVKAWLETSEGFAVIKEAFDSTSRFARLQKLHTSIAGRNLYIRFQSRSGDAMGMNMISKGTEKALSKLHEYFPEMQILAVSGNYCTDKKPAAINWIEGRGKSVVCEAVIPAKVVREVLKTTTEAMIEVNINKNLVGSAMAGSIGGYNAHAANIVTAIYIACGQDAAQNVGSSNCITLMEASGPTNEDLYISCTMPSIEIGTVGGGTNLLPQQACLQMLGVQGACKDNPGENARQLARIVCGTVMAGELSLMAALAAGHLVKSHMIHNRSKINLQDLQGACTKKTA

For “LILPKHSDAD [Peptide P5, natural peptide derived from a peptic lupin protein hydrolysate]”, the “SREBP-2 protein level (words, P5)” value [1] is given as “upregulation of the SREBP-2 transcription factor level” and the IC50 [2] is given as 147 µM.

Source: PMC8951016, “Computational Design and Biological Evaluation of Analogs of Lupin Peptide P5 Endowed with Dual PCSK9/HMG-CoAR Inhibiting Activity” (Pharmaceutics, 2022)
